Data published in US20200129459A1, “THE NEW USE OF 2-[(3Z)-6-FLUORO-2-METHYL-3-[(4-[…]) METHYLIDENE]INDEN-1 -YL] ACETIC ACID” (WYZSZA SZKOLA MEDYCZNA W BIALYMSTOKU, priority 2017, published 2020).

Legend:
Format in all cases: in vivo, Wistar rats
[1] = system: rats with alloxan-induced diabetes; assay: Healing of excision wounds in rats with alloxan-induced diabetes, solutions applied on the wound; conditions: diabetic rats, 200 μl/daily on wound surface until full healing
Description: Use of 2-[(3Z)-6-fluoro-2-methyl-3-[(4-methylsulfinylphenyl)methylidene]inden-1-yl] acetic acid (sulindac) for the treatment of difficult healing wounds in rats with alloxan-induced diabetes.
63 adult male Wistar rats were used in the experiment. All animals were kept under observation for two weeks before the onset of the experiment to exclude any intercurrent infection. Animals were housed in standard plastic cages by 5 animals per cage. Rats were kept in air-conditioned room at 22±2° C., humidity of 60-70% and a natural light (12/12 in the day/night cycle). All rats were fed ad libitum with standard laboratory rats chow.
Diabetes mellitus was induced with alloxan, a highly toxic compound that destroyed the β-cells of the pancreas Langerhans islets, by single intraperitoneally injection at dose 170 mg per kg of body weight in 0.1 M citrate-phosphate buffer, pH 4.0 after 24-hours fasting. After alloxan administration drinking water was replaced by 2 per cent sucrose solution in tap water on 10 days period.
Rats were identified as diabetic on the basis of blood glucose levels (higher than 16 mmol/l after 12 h starvation at 10 days post-alloxan treatment; total 31 rats were diabetic). […]
Every day wounds were photographed by digital camera. Wound macroscopic parameters were quantified using the ImageJ software (NIH, USA).

sorbitol = assay: Sorbitol in subcutaneous muscle subjacent to the wound; conditions: diabetic rats, wet muscle weight
Description: Each muscle sample was cut into small pieces and ground in the presence of liquid nitrogen until it was powdered. The weight of the powered muscle tissue was determined, after which 1 mL of ice-cold 0.5 M perchloric acid was added and the samples were sonicated. The sonicated tissue was centrifuged for 5 min to remove precipitate. The resulting supernatant was neutralized by adding a solution 0.5 M potassium carbonate. The solution was then vortexed for 45 seconds, then centrifuged for 5 min at 5000 g and precipitate was discarded. The samples were stored in deep freezer at −86° C. until sorbitol determination.
The neutralized muscle extracts were vortexed and 10 μL aliquots along with sorbitol standards were added to a 96 well plate. Sorbitol dehydrogenase reaction was started by adding to each well 10 μL of a reaction mix containing 20 μg/μL sorbitol dehydrogenase, 2 mM NAD in 50 mM glycine-NaOH buffer pH 9.7. Following incubation with sorbitol dehydrogenase for 30 min at room temperature, 100 μL of a solution containing 65 μg/mL diaphorase, 10 uM FMN, 20 μM resazurin in 50 mM glycine-NaOH, pH 9.7 was added and the fluorescence (ex/em at 544/590 nm) was determined on a fluorescent plate reader for a period of an hour. Sorbitol content was expressed in nmol/mg of wet muscle weight.

aldose reductase = target: T1, aldose reductase (Rattus norvegicus, UniProt P07943); assay: Rat subcutaneous muscle aldose reductase activity; conditions: subcutaneous muscle subjacent wound, diabetic rats
T1 construct: Tissue samples were homogenized in 135 mM Na, K-phosphate buffer (pH 7.0) containing 5 mM 2-mercaptoethanol; from tissue; host or cells: rat subcutaneous muscle subjacent to the wound (supernatant of the homogenate)
Description: Tissue samples were homogenized in 135 mM Na, K-phosphate buffer (pH 7.0) containing 5 mM 2-mercaptoethanol. The homogenate was centrifuged at 12,000 g for 30 min and the supernatant was used in the following steps. Aldose reductase activity was determined according to the classic method with glyceraldehyde as substrate. The incubation mixture contained 135 mM Na, K-phosphate buffer (pH 7.0), 100 mM lithium sulfate, 0.03 mM NADPH, 0.04 mM D,L-glyceraldehyde (monomerized at 80 deg C. for 10 min and cooled to RT) as a substrate and the sample solution (50 μL). The reaction was initiated by adding NADPH at 37 C and stopped by adding 0.5 M HCl, followed by the addition of 6 M NaOH containing 10 mM imidazole. The solution was heated at 60 C for 10 min to convert NADP to a fluorescent product. The fluorescence was measured using a spectrofluorometer with ex/em 360/460 nm. The assay was performed in duplicates. Protein content was determined using BCA assay.

[2] = system: rats with alloxan-induced diabetes; assay: Histology of healed wound skin; conditions: diabetic rats, skin excised next day after full epithelization; hematoxylin-eosin and van Gison staining
Description: Tissue specimens next day after full epithelization were excised in depth to include underlying connective tissues above the external fascia of the dorsal muscles. The excised skin was fixed in paraformaldehyde (4% in PBS, 0.01 M, pH 7.4), dehydrated in graded alcohol solutions, embedded in paraffin blocks and sectioned at 5 μm-thick serial sections using microtome.
Preparations from the collected skin fragments were prepared in a standard manner and stained with the classic method using hematoxylin and eosin, and by the van Gison method using picric acid and acid fuchsine. The preparations were analyzed using a Leica DM 1000 light microscope equipped with a Leica DFC300 FX digital camera.

[3] = mediana (25th; 75th percentile)

AR (aldose reductase; M±m (SEM)): 0.64 ± 0.04 nmole NADPH/min/mg protein
SMILES: CC1=C(CC(=O)O)c2cc(F)ccc2/C1=C\c1ccc([S+](C)[O-])cc1 (stereo not shown) [Sul, 2-[(3Z)-6-fluoro-2-methyl-3-[(4-methylsulfinylphenyl)methylidene]inden-1-yl] acetic acid]
Full healing ([1]; M±m (SEM)): 23.7 ± 0.65 days | Full healing [1, 3]: 24.0(22.0; 25.0) ^Δ days | Sorbitol levels (sorbitol; M±m (SEM)): 0.057 ± 0.005 nmol/mg | Sorbitol levels (sorbitol; [3]): 0.053(0.048; 0.075) ^ΔΔΔ nmol/mg | AR (aldose reductase; [3]): 0.677(0.63; 0.69) ^ΔΔΔ nmole NADPH/min/mg protein | Histology of the area of damage [2]: the skin was rebuilt in the form of a scar tissue made of modified connective tissue
